For the assay, the system named is Canines. Description: Canine ischemia/reperfusion (I/R) protocol, 3 hours no-flow LAD occlusion then reperfusion, MRI at week 8. The class given is in vivo. From the text:
Canines (n=9) underwent left thoracotomy at the 4th intercostal space and a hydraulic occluder was secured around the left-anterior descending coronary artery after the first principal diagonal. Subsequently a Doppler flow probe was affixed distal to the hydraulic occluder and animals were allowed to recover for 7 days. Following recovery, animals were subjected to ischemia/reperfusion (I/R) protocol and studied with magnetic resonance imaging. The ischemia protocol consisted of inflicting no-flow ischemia by inflating the hydraulic occlude (confirmed by the Doppler flow velocity) for 3 hours. Subsequently all animals were reperfused by deflation of the hydraulic occluder.

[1] abbreviates: 100% O2 versus room air during reperfusion, week 8.

The results in this text go back to patent US10471094B2, “Methods for reducing ischemia-reperfusion injury via targeted control of blood gases” (Cedars-Sinai Medical Center, priority 2013, dated 2019).

As for `O=O` [100% O2, oxygen], under setting [1], the “chronic scar size larger versus animals breathing room air during reperfusion” value is listed as “approximately 25%” and the “left ventricular ejection fraction (LVEF) reduced versus animals breathing room air during reperfusion” value is reported as 12%. Besides, the “LVEF at week 8 post MI” value (gas breathed during reperfusion, 3.0 T MRI, week 8 post I/R injury, left-ventricular ejection fraction) was 39.7 +/− 4.9. For the same molecule, the “Scar Volume at week 8 post MI (% LV)” value (gas breathed during reperfusion, 3.0 T MRI, week 8 post I/R injury, scar volume as percentage of left ventricular volume) was 15.0 +/− 3.8 % LV.
